Test results reported in patent US8785393B2, “Ophthalmic pharmaceutical compositions of DP2 receptor antagonists” (Panmira Pharmaceuticals, LLC, priority 2009, dated 2014).

How the values were obtained:
[1] = tested on: respiratory syncytial virus (RSV) eye infection; assay type: in vivo; conditions: topical 60 ng/eye once daily, 14 days
Experimental: A mouse model of respiratory syncytial virus (RSV) eye infection is used to test the effects of ocular application of DP2 receptor antagonist compound on RSV-induced ocular immunopathology (Bitko V, et al., J. Virol. 2007; 81(2):783-90; Bitko V, et al., Nat. Med. 2005; 11(1):50-5). Each mouse eye is topically treated with 60 ng DP2 receptor antagonist compound or vehicle (sterile saline) in a volume of 2 μl. The DP2 receptor antagonist compound is instilled 40 min after virus inoculum and then once daily over the entire duration of the protocol (14 days).
Instillation of virus and inhibitor in the eye. Female BALB/c mice, 6 to 8 weeks old, are purchased from Charles River Laboratories. […]
Ocular pathology. Ocular disease is evaluated with a slit lamp biomicroscope (Bitko V, et al., J. Virol. 2007; 81(2):783-90)15; Girgis et al., Invest. […] Pathology is scored on a scale of 0 to 5 as follows: 0=clear eye; 1=slight redness in the corners; 2=moderate redness and injection; 3=conjunctival and corneal injection with ciliary flush; 4=extensive injection, generally associated with some mucus; 5=most extensive injection, associated with mucus. Eyes are examined in a coded fashion with the reader unaware of the treatment given. The presence of gummy residue or mucin in the eyes is recorded. […]

[2] = tested on: mouse model of ragweed-induced allergic conjunctivitis; test: Mouse ragweed allergic conjunctivitis; assay type: in vivo; conditions: topical 0.3% in PBS, three times daily, days 9-15, FIG. 5
Experimental: A mouse model of ragweed-induced allergic conjunctivitis was used to test the efficacy of topical administration of a DP2 receptor antagonist to the eye on the development of allergic conjunctivitis. Compound 2 was evaluated in a mouse model of ocular allergy. In this model, a systemic sensitization with an allergen (Short Ragweed, SRW) was followed by topical challenge with the same allergen. For sensitization a suspension of 50 μg of short ragweed allergen (SRW, Greer, Lenoir, NC, USA) 25 μl of Aluminum Hydroxide (13 mg/ml, Sigma Aldrich) was injected into both hind rear footpads (Day 0). On days 9 through 15, topical treatment with compound 2 (0.3% in PBS), positive control (Prednisolone Acetate 1% in hypromellose), or vehicle control (PBS) was administered three times daily. Mice were dosed topically to the central cornea using a calibrated micropipette, with a 5 μL drop of treatment in each eye. On days 13 through 15 mice were challenged with topical doses of 1000 μg SRW suspension in 5 μl PBS in each eye. SRW was prepared fresh daily, and used within 3 hours of mixing, and mixed well before administration to ensure homogeneity. Thirty minutes after the final challenge (Day 15) clinical signs (discharge, lid swelling hyperemia, chemosis, and squinting) were evaluated using the aid of a dissecting microscope. A cumulative score was also recorded including all parameters measured with the exception of squinting.

[3] = tested on: guinea pig model of allergic conjunctivitis; test: Guinea pig model of allergic conjunctivitis (ovalbumin); assay type: in vivo, Hartley Guinea pigs
Experimental: A guinea pig model of allergic conjunctivitis is used to test the effect of topical administration of a DP2 receptor antagonist to the eye on the development of allergic conjunctivitis. Male Hartley Guinea pigs ages 4-8 weeks (300-500 grams) at the beginning of the experiment were sensitized by intraperitoneal injection of ovalbumin [0.5 ml of a 100 μg/ml solution in Imject Alum. An additional 0.5 ml of the ovalbumin (OVA) solution is injected subcutaneous in the proximity of the lymph nodes (Muise et al., 2002). Twenty one days after sensitization, guinea pigs received an ocular challenge. Briefly, animals were secured within a towel and placed in a lateral recumbent position. Ten microliters of saline or OVA (2.5% in Saline) was topically applied to each eye, followed by 2-3 manually forced blinks. This procedure is repeated again on day 23. Clinical scoring of redness (using a scale of 0-3), edema (using a scale of 0-3) and discharge (using a scale of 0-4) were evaluated 90 minutes after challenge on day 23. The itch/scratch response was observed and recorded (using a scale of 0-3) for the first 30 minutes after challenge on day 23. The DP2 receptor antagonist (compound 2; {2′-[(N-cyclopropanecarbonyl-N-ethyl-amino)-methyl]-6-methoxy-4′-trifluoromethyl-biphenyl-3-yl}-acetic acid) was administered on days 21-23 by topical application using the procedure described above in a concentration of 300 ng/eye in PBS vehicle. Oral administration was also evaluated by gavage of compound 2 (10 mg/kg) prepared in 0.5% Methylcellulose or water. The means±standard error of the mean were plotted and analyzed by one-way ANOVA using Graphpad Prizm.

[4] = scored 30 min after final challenge (Day 15)
[5] = topical 300 ng/eye in PBS, days 21-23, scored 90 minutes after challenge on day 23, FIG. 3

CCN(Cc1cc(C(F)(F)F)ccc1-c1cc(CC(=O)O)ccc1OC)C(=O)C1CC1 [compound 2, {2′-[(N-cyclopropanecarbonyl-N-ethyl-amino)-methyl]-6-methoxy-4′-trifluoromethyl-biphenyl-3-yl}-acetic acid]
significantly reduced: cumulative clinical score ([2]; all parameters except squinting) | chemosis [2, 4] | discharge [2, 4] | lid swelling [2, 4] | cummulative clinical score ([3]; topical 300 ng/eye in PBS, days 21-23, after ocular antigen challenge, FIG. 3) | discharge [3, 5] | redness [3, 5]
reduced: RSV eye pathology ([1]; FIG. 4 (A)) | eye IL4 induction ([1]; FIG. 4 (B))
trend toward reduction: itch/scratch response ([3]; topical 300 ng/eye in PBS, days 21-23, first 30 minutes after challenge on day 23, FIG. 3) | Ocular edema [3, 5]
failed to impact any endpoint: any endpoint (redness, edema, discharge, itch/scratch, clinical score) ([3]; oral gavage 10 mg/kg)
